Consider one compound from patent US8729053B2, “Nuclear factor kappa B pathway inhibitor composition and use of same” (The United States of America, as represented by the …, priority 2008, dated 2014).

The subject of data set [1] is MCF-7, T47D, and MDA-MB-231 breast cancer cells. Briefly: XTT assay in breast cancer cells. Type of data set: cell-based. The conditions noted are these: 10 μM. Here is the method: (§1) In order to evaluate the potential therapeutic activity of the compound, tests for the biological activity of compound I were performed. The compound is non-toxic to MCF-7, T47D, and MDA-MB-231 breast cancer cells as estimated by XTT assay at 10 μM. To determine the effects of compound I on invasion by breast cancer cell lines, a matrigel invasion assay was used. The levels of phosphorylated IκBα were confirmed in TPA treated ER-positive (MCF-7 and T47D) and ER-negative (MDA-MB-231) breast cancer cell lines and compared the levels to those after pretreatment with compound I. Although induced levels of phosphorylated IκBα varied with the cell line, IκBα phosphorylation was eliminated by compound I treatment in all three breast cancer cell lines. Compound I also produced no effect on the estrogen receptor activity in the ER-positive breast cancer cells using ERE promoter luciferase reporter assay. Invasion capacity of breast cancer cells was increased by TPA stimulation compared to DMSO treated vehicle control. […] Following anchorage-independent colony induction in TPA-treated cells without or with compound I, colonies were lysed and measured with CyQuant GR Dye to detect DNA by fluorescence plate reader as a measure of colony count. Total transformed colony numbers were calculated from RFU and cell dose curve of JB6 cells. […]

In another data set the test system is IκBα. Briefly: Phosphorylated IκBα levels in TPA treated breast cancer cell lines. The class given is cell-based. The conditions noted are these: TPA treated MCF-7, T47D, MDA-MB-231. Here is the method: as §1
The test system of a further data set is estrogen receptor. Briefly: ERE promoter luciferase reporter assay in ER-positive breast cancer cells. Type of data set: cell-based. How it is done: as §1
Data set [2] concerns SRE (Serum response element). Briefly: SRE luciferase reporter assay in HEK293 cells. Type of data set: cell-based. The conditions noted are these: HEK293, TPA 10 ng/ml 18 hours. How it is done: (§2) All expression plasmids were transiently transfected into HEK293 cells in a 96-well plate (0.1 μg/well) by using Effectene transfection reagent (Qiagen, Valencia, Calif.) according to the manufacturer's manual. HEK293 cells were maintained in Dulbecco's modified Eagle medium (Sigma, St. Louis, Mo.) supplemented with 10% fetal bovine serum (Atlanta Biologicals, Lawrenceville, Ga.) and incubated at 37° C. in a 5% CO2 incubator. After 24 hrs incubation, the medium was changed to DMEM with 0.2% FBS, and the transfectants were exposed to various concentrations of compound I and TPA (10 ng/ml). Cells were lysed with passive lysis buffer and the luciferase assay was performed using the Firefly-Luciferase reporter assay system (Promega, Madison, Wis.) and MLX Luminometer (Dynex Technology, Chantilly, Va.).
Three different luciferase reporter genes, AP-1 reporter containing four times TRE consensus originated from GCN4 and SRE reporter purchased from Stratagene (La Jolla, Calif.) respectively are as described previously (Suzukawa et al., Environ. Health Perspect., 2002, 110, 865-70). NFκB reporter is driven by five times NFκB responsive element inserted into Cis-reporter backbone (Stratagene, La Jolla, Calif.). […]

A further data set concerns uPAR promoter. Briefly: uPAR promoter luciferase reporter assay in HEK293 cells. The class given is cell-based, human. The conditions noted are these: TPA 10 ng/ml 18 hours. Here is the method: as §2
Three different luciferase reporter genes, AP-1 reporter containing four times TRE consensus originated from GCN4 and SRE reporter purchased from Stratagene (La Jolla, Calif.) respectively are as described previously (Suzukawa et al., Environ. Health Perspect., 2002, 110, 865-70). […]
Inhibition of NFκB transactivation would be expected to result in suppressed expression of genes whose transcription depends on NFκB. Quantitative RT-PCR was used to measure endogenous levels of IL-6 mRNA, transcribed from a gene whose transcription depends on NFκB but not AP-1. […]

Where a name gives a salt, the structure may show the parent alone.

For the compound `Cc1cc(N)ccc1N=Nc1ccc(S(=O)(=O)CCOS(=O)(=O)O)cc1` [compound I, 2-(4-((4-amino-2-methylphenyl)diazenyl)phenylsulfonyl)ethyl hydrogen sulfate], in data set [1], the “Toxicity estimated by XTT assay” value is listed as “non-toxic”. The “IκBα phosphorylation in breast cancer cell lines” value with IκBα is “eliminated”. In the data set on estrogen receptor, the “Effect on estrogen receptor activity” value is reported as “no effect”. In data set [2], the “TPA-induced SRE luciferase activity” value is on record as “repressed but to a lesser degree than AP-1”. In addition, the “uPAR luciferase activity” value in the data set on uPAR promoter is reported as “dose-dependent inhibition”.
